Format in all cases: physicochemical
A short description of series [1]: Drug substance stability of packaged solid. As to conditions: 1 month, double LDPE bags inside HDPE container.
Method: Form 2 of 2-(5-bromo-4-(4-cyclopropylnaphthalen-1-yl)-4H-1,2,4-triazol-3-ylthio)acetate was tested under various conditions to determine drug substance stability. […] Packaging was in a double low density polyethylene plastic bags inside a HDPE container.
The nature of series [2]: Gravimetric vapor sorption (GVS) study. Conditions: at high humidity. The source says:
FIG. 12 illustrates a GVS study of form 1 and form 2. […] This property of decreased hygroscopicity greatly aids in the preparation of solid pharmaceutical dosage forms.

Series [3] in a line: Solid held in equilibrium with its saturated solvent solution at 60° C. Conditions: saturated acetone solution, 6 days.
The nature of series [4]: Solubility in acetate buffer (25 mM, pH 5), assayed by HPLC. As to conditions: 25 °C, pH 5, aqueous buffer, thermodynamic from solid; for solubility at 5 day: Day 5; for solubility at 7 day: Day 7. The method, then: Form 1 (˜25 mg) and acetate buffer (25 mM, pH 5, 4 mL), prepared with and without sodium chloride (ionic strength adjusted to=0.1M), were placed in a glass vial which was sealed and placed on a laboratory rotator in a 25° C. incubator. After 1, 5, and 7 days the samples were filtered and assayed by HPLC.
Form 2 (˜25 mg) and acetate buffer (25 mM, pH 5, 4 mL), prepared with and without sodium chloride (ionic strength adjusted to=0.1M), were placed in a glass vial which was sealed and placed on a laboratory rotator in a 25° C. incubator. After 1, 5, and 7 days the samples were filtered and assayed by HPLC.

The record followed here is patent US9956205B2, “Polymorphic forms of 2-(5-bromo-4-(4-cyclopropylnaphthalen-1-yl)-4H-1,2,4-triazol-3-ylthio)acetic acid and uses thereof” (Ardea Biosciences, Inc., priority 2010, dated 2018).

Structures are written as SMILES. Values after ≈ are worked out from the molar mass of the structure shown. Some results are limits rather than exact numbers.

As usually defined, the solubility is the dissolved amount per volume that the medium holds. A lower solubility goes with a poorly soluble substance.

As to `O=C(O)CSc1nnc(Br)n1-c1ccc(C2CC2)c2ccccc12` [Form 2, 2-(5-bromo-4-(4-cyclopropylnaphthalen-1-yl)-4H-1,2,4-triazol-3-ylthio)acetic acid], the “degradation of packaged drug substance” value in series [1] (25° C.-60% RH) and in series [1] (40° C.-75% RH) was “No degradation” in each case. Besides, the “adsorption (hygroscopicity) by GVS” value in series [2] was less than 0.1 % w/w.
In the case of `O=C(O)CSc1nnc(Br)n1-c1ccc(C2CC2)c2ccccc12` [Form 1, 2-(5-bromo-4-(4-cyclopropylnaphthalen-1-yl)-4H-1,2,4-triazol-3-ylthio)acetic acid], in series [3], the “outcome of equilibration with saturated solution” value was “decomposition”. Moreover, the “adsorption (hygroscopicity) by GVS” value in series [2] is listed as less than 0.2 % w/w. Besides, the solubility at 5 day was 257 µg/mL (≈ 635 µM) in series [4] (pH 5, NaCl (I = 0.1)) and 213 µg/mL (≈ 528 µM) in series [4] (pH 5, No NaCl). Also, the solubility at 7 day turned out to be 304 µg/mL (≈ 753 µM) in series [4] (pH 5, NaCl (I = 0.1)) and 157 µg/mL (≈ 388 µM) in series [4] (pH 5, No NaCl). The compound further showed a solubility at 1 day in series [4] (pH 5, No NaCl, Day 1) of 265 µg/mL (≈ 656 µM).
